# Results from publication PMC1838960, “Inhibition of Hippocampal Matrix Metalloproteinase-3 and -9 Disrupts Spatial Memory” (Neural Plasticity, 2006).
# Columns and labels:
# [1] = target: T1, MMP-3 (stromelysin-1) catalytic domain (Homo sapiens, UniProt P08254); test: MMP fluorescence enzyme assay, MMP-3 catalytic domain; assay type: biochemical
# T1 construct: Catalytic domains for MMP-3 and -9 were used; purchased Biomol International LP
# Protocol: (§1) Enzyme assays for MMP activity were conducted in black 96-well plates according to manufacturer instructions (Biomol International LP, Plymouth Meeting, Pa). Catalytic domains for MMP-3 and -9 were used with the fluorogenic peptide substrate: Mca-Pro-Leu-Gly-Leu-Dpa-Ala-Arg-NH2. Solutions were preincubated with FN-439 for 30 minutes at 37°C. Subsequently, the fluorogenic peptide substrate was added and fluorescence was measured at 10-minute intervals for one hour using a Perkin-Elmer plate reader. Slopes were derived from the linear portion of the curves and background slopes were subtracted from all samples. The slopes were normalized as percent of enzyme activity compared with activity in the absence of inhibitor. IC50 values were extrapolated using quadratic and sigmoidal curve fit programs for each sample and were averaged.
# [2] = target: T2, MMP-9 (gelatinase B) catalytic domain (Homo sapiens, UniProt P14780); test: MMP fluorescence enzyme assay, MMP-9 catalytic domain; assay type: biochemical
# T2 construct: Catalytic domains for MMP-3 and -9 were used; purchased Biomol International LP
# T2 sequence (P14780 107-457 limits assumed): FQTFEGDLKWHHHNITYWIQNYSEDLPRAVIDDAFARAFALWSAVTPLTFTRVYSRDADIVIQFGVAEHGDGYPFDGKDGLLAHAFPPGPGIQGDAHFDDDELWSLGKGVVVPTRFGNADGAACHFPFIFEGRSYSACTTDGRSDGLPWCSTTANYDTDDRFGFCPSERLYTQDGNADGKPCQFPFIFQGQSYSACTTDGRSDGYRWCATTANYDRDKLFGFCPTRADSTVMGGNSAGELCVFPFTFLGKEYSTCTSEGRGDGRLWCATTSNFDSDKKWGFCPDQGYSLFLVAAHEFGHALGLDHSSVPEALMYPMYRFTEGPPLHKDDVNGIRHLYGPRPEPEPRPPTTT
# Protocol: as §1
# [3] = system: MMP-2 and MMP-9 gelatinase activity in the hippocampus; test: In situ zymography of hippocampal sections (DQ-gelatin-FITC); design: species or system rat; conditions: 14.4 mM, 3 h preincubation at 37°C plus 1 h with DQ-gelatin, vs PBS
# Protocol: (§2) Naïve rats were euthanized by decapitation, their brains were sectioned (10 μm) using a cryostat and the sections were mounted on slides and stored at −80°C for no longer than a week. These sections were warmed to room temperature for 10 minutes and preincubated for 3 hours in either PBS (pH 7.4 control) or 14.4 mM FN-439 in PBS at 37°C. The control slides were then incubated for an additional hour with DQ-gelatin-FITC (DQ, Molecular Probes, Eugene, Ore) and the treated slides were incubated with DQ containing 14.4 mM FN-439 for 1 additional hour. Following incubation, the slides were washed in PBS, fixed with 4% paraformaldehyde in PBS, and cover slipped using prolong antifade mounting medium containing DAPI (Molecular Probes, Eugene, Ore). The slides were examined using a Zeiss Axioplan 2I microscope using epifluorescent illumination and appropriate filter sets for visualizing DQ (FITC) and DAPI (UV) fluorescence. Images were captured at 100–200X magnification using a Kodak DC290 digital camera and Photoshop software (Adobe Systems Inc, San Jose, Calif).
# [4] = system: cell nuclei of hippocampal sections; test: Cell nuclei (DAPI) appearance in hippocampal sections, cellular toxicity; design: species or system rat; conditions: 14.4 mM; vs PBS
# Protocol: as §2
# [5] = Morris water maze task, acquisition training; assay type: in vivo, male Sprague-Dawley rats; conditions: for positive thigmotaxis (ratio of time near the wall to total trial time), day 8 / day 8 latency to find the platform / day 8 distance swum to find the platform: 70 μg/day cumulative; for day 8 latency to find the platform / day 8 distance swum to find the platform: mean ± SEM; for day 8 latency to find the platform: n = 8; for overall swim speed during the 8 days of training: no difference; for distance to find the platform, representative rat / latency to find the platform, representative rat: single rat, day 8 trial
# Text: (§3) The protocols utilized in this investigation minimized pain and discomfort, were approved by the Washington State University Institutional Animal Care and Use Committee, and conformed to the guidelines for the care and use of laboratory animals as required by the National Institutes of Health Guide for the Care and Use of Laboratory Animals (NIH Publication No. 80-23). Male Sprague-Dawley rats (300–350 g, breeding stock derived from Taconic, Germantown, NY) were adapted to a 12-hour light/dark cycle initiated at 0600 hour in the American Association for the Accreditation of Laboratory Animal Care approved vivarium at a temperature of 21 ± 1°C. The animals were housed in pairs and provided with water and food (Harlan Teklad F6 Rodent Diet, Madison, WI) ad libitum except the night prior to surgery when food was withheld. Each animal was prepared with bilateral guide cannulas targeting either the dorsal hippocampi (flat skull coordinates relative to bregma: post: −4.0 mm, lat: ±2.5 mm from midline) or lateral ventricles (post: 1.0 mm, lat: ±1.5 mm from midline) under ketamine-xylazine anesthesia (100 and 2 mg/kg, resp., intramuscularly). The guide was constructed from PE-60 tubing (Clay Adams, Parsippany, NJ) with a heat bulge that rested on top of the cranium thus serving as a stop to further penetration. The total length of the guide was 2.5 cm with a distance from the beveled tip to the heat bulge of 2.0 and 2.5 mm for the dorsal hippocampus and icv, respectively. All infusions were made using a 30-gauge stainless-steel tubing injector with a beveled end that protruded 2.0 mm beyond the tip of the PE guide cannula. The injector was attached to a 10 μL Hamilton syringe by PE-20 tubing. The animals were hand gentled for 5 minutes per day during the 7 days of recovery from surgery. Those animals prepared with dorsal hippocampus guide cannulas were randomly assigned to one of two groups (8 rats each) that received either FN-439 or artificial cerebrospinal fluid vehicle (aCSF; in mM: 124 NaCl, 3 KCl, 1.24 KH2PO2, 1.3 MgSO4, 2.0 CaCl2, 26 NaHCO3, and 10 D-glucose). Those animals prepared with icv cannulas were similarly assigned.
# Our laboratory previously used a 7.2 mM stock in aCSF icv infused over 5 minutes to a total volume of 10 μL (35 μg) 10 minutes prior to behavioral testing, and again 3 hours post-testing (cumulative dose = 70 μg). Presently, we utilized a 14.4 mM stock in aCSF infused over 1 minute to a total volume of 5 μL, that is, 2.5 μL for each side (17.5 μg in 2.5 μL aCSF/min) 20 minutes prior to behavioral testing (5 trials), and again 10 minutes after testing (cumulative dose = 70 μg) each day. The protocol used for icv infusion was 35 μg in 5 μL aCSF infused over 1 minute, 20 minutes prior to testing and again 10 minutes following testing (cumulative dose = 70 μg). Behavioral testing in the Morris water maze task was conducted by an experimenter blind to the treatment of each animal.
# The Morris water maze task was used to test spatial memory acquisition. This protocol has been described in detail. Briefly, each trial entailed placing the animal into the water facing the wall of the pool (1.6 m in diameter painted black, filled to a depth of 30 cm) at one of four locations (North (N), South (S), East (E), and West (W)) and tracking its swimming path and duration (Chromatrac; San Diego Instruments, San Diego, Calif) until the submerged platform was found (12 cm in diameter painted black, 2 cm below the surface). Swim speed was determined from these values. If the animal located the platform within 120 seconds it was permitted 30 seconds on the platform before the next trial commenced. […] The animal's entry point was randomized on each trial, and the location of the platform was randomly assigned to one of the four quadrants and remained fixed for each animal throughout training (5 trials/day for 8 days). At the conclusion of the 5 acquisition trials on day 8 each animal was administered one probe trial. […]
# [6] = Morris water maze task, probe trial; assay type: in vivo, male Sprague-Dawley rats; conditions: for time spent in the target quadrant: 70 μg/day cumulative, 120-s probe trial on day 8, mean ± SEM
# Text: as §3, with “Those animals prepared with dorsal hippocampus guide cannulas were randomly assigned to one of two groups (8 rats each) that received either FN-439 or artificial cerebrospinal fluid vehicle (aCSF; in mM: 124 NaCl, 3 KCl, 1.24 KH2PO2, 1.3 MgSO4, 2.0 CaCl2, 26 NaHCO3, and 10 D-glucose). Those animals prepared with icv cannulas were similarly assigned.” left out
# The Morris water maze task was used to test spatial memory acquisition. […] Swim speed was determined from these values. […]
# HG gelatinase = conditions: ref Odake et al. [37], read-out: IC50 against gelatinase; cited from earlier work
# Text: (§4) There are at least two possible explanations for these differences. First, Odake and colleagues used HSF stromelysin and HG gelatinase as substrates, while we used MMP-3 (stromelyisin-1) and MMP-9 (gelatinase B). Secon ...
# HSF stromelysin = conditions: ref Odake et al. [37], read-out: IC50 against stromelysin; cited from earlier work
# Text: as §4
# MMP-9 = conditions: 7.2 mM stock in aCSF infused over 30 min, 100 μL (350 μg); vs aCSF control; ref Reeves et al. [19]; cited from earlier work
# [7] = icv, 7.2 mM stock, 10 μL (35 μg) twice, cumulative 70 μg; ref [27]; cited from earlier work
# Text: (§5) The potential contribution of ECM remodeling to learning and memory has only recently been addressed. Our laboratory has focused on hippocampal mediated spatial memory and measured elevations in hippocampal MMP-3 and MMP-9 during acquisition of the Morris water maze task.
# [8] = system: late-phase of long-term potentiation (LTP); conditions: ref [27]; cited from earlier work
# Text: as §5
# [9] = system: LTP in the sprouting crossed temporodentate pathway; conditions: icv 350 μg, following unilateral lesions of the entorhinal cortex; ref Reeves et al. [19]; cited from earlier work
# [10] = catalytic domain, substrate Mca-Pro-Leu-Gly-Leu-Dpa-Ala-Arg-NH2, 30 min preincubation at 37°C, fluorescence at 10-min intervals for one hour, mean ± SEM
# T1 sequence (P08254 100-272 limits assumed): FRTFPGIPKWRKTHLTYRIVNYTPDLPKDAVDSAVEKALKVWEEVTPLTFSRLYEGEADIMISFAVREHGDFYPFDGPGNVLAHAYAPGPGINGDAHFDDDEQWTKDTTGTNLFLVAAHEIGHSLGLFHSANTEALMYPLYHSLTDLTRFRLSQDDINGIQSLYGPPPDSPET
compound,measurement,setting,value
"CC(C)C[C@@H](NC(=O)[C@@H]1CCCN1C(=O)CNC(=O)c1ccc(N)cc1)C(=O)N[C@H](C)C(=O)NO [FN-439, 4-Abz-Gly-Pro-D-Leu-D-Ala-OH]",IC50,[1]; [10],16.2 ± 7.8 µM
same,effect upon the MMP-3 catalytic domain (in words),[1]; in vitro fluorescence assay,maximal effect
same,IC50,[2]; [10],210 ± 37.8 µM
same,specificity for the MMP-9 catalytic domain (in words),[2]; in vitro fluorescence assay,good specificity
same,inhibition of MMP-2 and MMP-9 in the hippocampus,[3]; dentate gyrus,significantly inhibited
same,basal activity of MMP-9 (green fluorescence),[3],significantly reduced
same,cellular toxicity (blue fluorescence of cell nuclei),[4],no cellular toxicity
same,acquisition of the Morris water maze task (in words),"[5]; bilateral into dorsal hippocampi or icv, 8 days, vs aCSF",significantly interfered with the acquisition of the task
same,"positive thigmotaxis (ratio of time near the wall to total trial time), day 8","[5]; dorsal hippocampus, aCSF hippocampus 0.17 ± 0.06",0.37 ± 0.09
same,day 8 latency to find the platform,"[5]; dorsal hippocampus, bilateral, aCSF hippocampus 13.4 ± 1.0 s",37.9 ± 8.4 s
same,day 8 distance swum to find the platform,"[5]; dorsal hippocampus, bilateral, aCSF hippocampus 4.2 ± 0.5 m",12.1 ± 2.9 m
same,overall swim speed during the 8 days of training,"[5]; dorsal hippocampus, aCSF hippocampus 0.30 ± 0.02 m/s",0.32 ± 0.02 m/s
same,latencies to find the platform on days 5–8 (in words),"[5]; hippocampus or icv, vs aCSF, P < .05",significantly longer latencies
same,"positive thigmotaxis (ratio of time near the wall to total trial time), day 8","[5]; icv, aCSF icv 0.14 ± 0.05",0.45 ± 0.11
same,day 8 latency to find the platform,"[5]; icv, aCSF icv 14.3 ± 1.9 s",44.4 ± 10.7 s
same,day 8 distance swum to find the platform,"[5]; icv, aCSF icv 5.8 ± 0.7 m",12.9 ± 2.7 m
same,overall swim speed during the 8 days of training,"[5]; icv, aCSF icv 0.31 ± 0.02 m/s",0.31 ± 0.02 m/s
same,dorsal hippocampus infusion compared with icv delivery (in words),[5]; interference with acquisition of the Morris water maze task,equivalently effective
same,"distance to find the platform, representative rat","[5]; dorsal hippocampus, aCSF rat 5.9 m",17.9 m
same,"latency to find the platform, representative rat","[5]; dorsal hippocampus, aCSF rat 15 s",38.3 s
same,"distance to find the platform, representative rat","[5]; icv, aCSF rat 4.7 m",14.8 m
same,"latency to find the platform, representative rat","[5]; icv, aCSF rat 13.3 s",43.9 s
same,time spent in the target quadrant,"[6]; dorsal hippocampus, aCSF hippocampus 40.7 ± 2.2 s",34.3 ± 2.7 s
same,number of entries into the target quadrant,"[6]; hippocampus or icv, probe trial day 8, groups compared incl. aCSF (F3,28 = 0.98, P > .10)",no differences
same,time spent in the target quadrant,"[6]; icv, aCSF icv 47.1 ± 4.0 s",28.4 ± 0.8 s
same,IC50,HG gelatinase,30 µM
same,IC50,HSF stromelysin,150 µM
same,inhibition of MMP-9 activity,MMP-9,83.6%
same,acquisition of the Morris water maze task,[7],disrupted the acquisition of the Morris water maze task
same,late-phase of long-term potentiation (LTP),[8],interfered with the late-phase of long-term potentiation
same,LTP in the sprouting pathway,[9],lack the ability to demonstrate LTP in the sprouting pathway
